Legend:
[1] = Solubility of the active in the dissolution medium; format: physicochemical; settings: acetate buffer pH 4.5 USP + 0.1% sodium lauryl sulfate, 37°C
Description: Drug dissolution of the new solid dispersion formulations of Example 6 and 7 was studied using the paddle apparatus “Apparatus 2” of the USP 28-NF 23 (The United States Pharmacopoeia USP 28 2005) at a temperature of 37±0.5° C. and a paddle speed of 75 rpm. 900 mL of acetate buffer pH 4.5 USP with the addition of 0.1% (m/V) sodium lauryl sulfate as surfactant was used as dissolution medium. An amount of solid dispersion equivalent to 50 mg of the compound of Formula I as base was inserted in each vessel. During the dissolution test samples were drawn through a filter and the dissolved amount of drug substances was determined by UV spectrometry. The determined amount of active was calculated as % (m/m) of total dose (50mg).
Due to the low solubility of the active only about […] of the 50 mg dose are dissolved. The solid dispersions, however, show fast and almost complete dissolution of the active. […] The solid new pharmaceutical compositions of Example 6 and 7, which contain the active in substantially amorphous form, show clear supersaturation compared to the physical mixture of the active and PVP, and no significant recrystallisation is observed for at least 1 hour. […]

[2] = tested on: raf; test: Inhibition of raf kinase; format: biochemical; settings: statement in words, no data
[3] = tested on: PDGFR; test: Inhibition of PDGFR kinase; format: biochemical; settings: statement in words, no data
[4] = tested on: p38; test: Inhibition of p38 kinase; format: biochemical; settings: statement in words, no data
[5] = molecular target: VEGFR-2 (Homo sapiens, UniProt P35968); test: Inhibition of VEGFR-2 kinase; format: biochemical; settings: statement in words, no data
Sequence of VEGFR-2 (P35968 20-1356, species assumed): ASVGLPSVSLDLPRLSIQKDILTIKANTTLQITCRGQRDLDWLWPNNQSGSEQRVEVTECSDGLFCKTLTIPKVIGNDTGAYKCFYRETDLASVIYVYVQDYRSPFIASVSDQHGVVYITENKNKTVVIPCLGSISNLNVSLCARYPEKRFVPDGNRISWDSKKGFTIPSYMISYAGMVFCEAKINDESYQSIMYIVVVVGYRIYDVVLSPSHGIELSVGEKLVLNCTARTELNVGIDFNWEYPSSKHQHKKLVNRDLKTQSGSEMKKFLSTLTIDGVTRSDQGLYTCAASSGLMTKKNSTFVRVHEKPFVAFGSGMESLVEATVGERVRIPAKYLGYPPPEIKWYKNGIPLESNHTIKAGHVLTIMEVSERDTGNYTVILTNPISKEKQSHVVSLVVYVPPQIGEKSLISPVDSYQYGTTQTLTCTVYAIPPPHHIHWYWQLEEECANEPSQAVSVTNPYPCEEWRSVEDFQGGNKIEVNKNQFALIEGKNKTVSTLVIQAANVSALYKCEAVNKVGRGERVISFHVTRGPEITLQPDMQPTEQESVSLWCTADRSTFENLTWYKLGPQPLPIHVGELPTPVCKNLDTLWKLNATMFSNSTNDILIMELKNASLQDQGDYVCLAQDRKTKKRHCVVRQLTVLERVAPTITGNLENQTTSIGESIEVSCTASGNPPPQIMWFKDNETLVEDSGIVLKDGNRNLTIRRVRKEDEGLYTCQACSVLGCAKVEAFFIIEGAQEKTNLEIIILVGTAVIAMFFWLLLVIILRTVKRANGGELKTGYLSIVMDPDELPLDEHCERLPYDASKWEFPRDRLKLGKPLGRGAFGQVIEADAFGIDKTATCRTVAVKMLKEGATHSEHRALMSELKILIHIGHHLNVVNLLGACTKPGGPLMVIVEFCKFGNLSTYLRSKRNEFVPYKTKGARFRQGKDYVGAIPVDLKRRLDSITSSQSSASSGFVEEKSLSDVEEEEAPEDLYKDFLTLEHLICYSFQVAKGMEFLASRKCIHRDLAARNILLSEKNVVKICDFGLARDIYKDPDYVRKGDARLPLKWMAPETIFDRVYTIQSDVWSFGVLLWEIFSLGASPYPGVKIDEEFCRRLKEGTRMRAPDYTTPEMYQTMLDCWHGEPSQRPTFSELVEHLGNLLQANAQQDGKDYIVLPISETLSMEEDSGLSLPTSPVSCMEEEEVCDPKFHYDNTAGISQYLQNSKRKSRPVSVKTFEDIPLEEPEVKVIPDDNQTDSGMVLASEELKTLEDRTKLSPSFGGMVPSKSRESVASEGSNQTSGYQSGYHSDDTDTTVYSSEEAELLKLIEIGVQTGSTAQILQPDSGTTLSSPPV

[6] = Comparative oral bioavailability in the rat (Example 19); format: in vivo, male Wistar rats; settings: male, Wistar, plasma, 5 mg/kg, oral gavage; for bioavailability: relative to iv bolus 2 mg/kg
Description: A single dose of the compounds of Examples 1, 2, 3, 4, and 5 was administered to each of three fasted male Wistar rats (220-250 g; 6-8 weeks old) orally. Compounds of Examples 1-4 were administered by oral gavage in the formulation described in Table 1. The solid dispersion of Example 5 (1.25 mg drug substance in 5 mg PVP-25) was administered in size 9 capsules. One capsule was administered per rat. Approximately 0.4 mL of whole blood was collected via an indwelling jugular catheter at: 0.25, 0.5, 1, 2, 4, 7, 24, and 48 h post-dose. The blood samples were centrifuged (approx. 5 min.) in order to obtain plasma which was then transferred to the appropriately labeled vials and stored frozen (−20° C.) until analysis for parent drug.
Plasma samples were analyzed via LC/MS/MS for parent drug concentrations and pharmacokinetic parameters were calculated using Watson LIMS.
The dose of 5 mg/kg of the pharmaceutical composition of Example 5 means 5 mg of drug substance (compound of Example 1) per kg of body weight. The relative bioavailabilities in the rat are calculated from the data of an intravenous bolus dose of 2 mg/kg in the same strain of rats, using a solution of the active in a Cremophor RH40:ethanol:water (12.5:12.5:75) vehicle. The plasma exposure in the exposure arm of the suspension in 0.5% tylose solution (9.9% F) reflects a crystalline, micronized drug substance with the following characteristics: 208° C. (onset), 211° C. (peak), ΔH=91.4 J/g.

[7] = po, 0.5% NaCMC and 0.5% Tween 80 in water
[8] = po, vehicle 0.5% NaCMC and 0.5% Tween 80 in water

SMILES | solubility of the active in this medium [1] [mg/900 mL] | inhibition of raf kinase [2] | inhibition of PDGFR kinase [3] | inhibition of p38 kinase [4] | inhibition of VEGFR-2 kinase [5] | bioavailability ([6]; oral, 0.5% tylose in water) [%] | bioavailability [6, 7] [%] | bioavailability ([6]; po, 0.5% tylose in water) [%] | AUC(0-inf) [6, 8] [µg·h/mL] | AUC(0-inf) ([6]; po, vehicle 0.5% tylose in water) [µg·h/mL]
CNC(=O)c1cc(Oc2ccc(NC(=O)Nc3ccc(Cl)c(C(F)(F)F)c3)c(F)c2)ccn1 [Example 1, 4{4-[3-(4-chloro-3-trifluoromethylphenyl)-ureido]-3-fluorophenoxy}-pyridine-2-carboxylic acid methylamide] | 2.3 | potent inhibitor | potent inhibitor | potent inhibitor | potent inhibitor | 9.9 | 13 | 10 | 21.8 | 17
CNC(=O)c1cc(Oc2ccc(NC(=O)Nc3ccc(Cl)c(C(F)(F)F)c3)c(F)c2)ccn1.Cl [Example 2, 4{4-[3-(4-chloro-3-trifluoromethylphenyl)-ureido]-3-fluorophenoxy}-pyridine-2-carboxylic acid methylamide hydrochloride] |  |  |  |  |  |  | 7 |  | 12.1 | 
CNC(=O)c1cc(Oc2ccc(NC(=O)Nc3ccc(Cl)c(C(F)(F)F)c3)c(F)c2)ccn1.CS(=O)(=O)O [Example 3, 4{4-[3-(4-chloro-3-trifluoromethylphenyl)-ureido]-3-fluorophenoxy}-pyridine-2-carboxylic acid methylamide mesylate] |  |  |  |  |  |  | 10 |  | 16.8 | 
CNC(=O)c1cc(Oc2ccc(NC(=O)Nc3ccc(Cl)c(C(F)(F)F)c3)c(F)c2)ccn1.O=S(=O)(O)c1ccccc1 [Example 4, 4{4-[3-(4-chloro-3-trifluoromethylphenyl)-ureido]-3-fluorophenoxy}-pyridine-2-carboxylic acid methylamide phenylsulfonate] |  |  |  |  |  |  | 10 |  | 15.8 | 

Reference: patent US20060058358A1, “Pharmaceutical compositions for the treatment of hyper-proliferative disorders” (priority 2004, published 2006)
